In patent publication US20060229358A1, “Pharmaceutical composition containing flavonoids” (Taipei Medical University, priority 2005, published 2006) one finds IC50 and PDE4H/PDE4L ratio data, which are given here for eight compounds.

As a reminder, the IC50 is the concentration needed to halve the response being measured.

One experiment concerns PDE3. Description: Inhibition of cyclic nucleotide PDE activity (Assay I), PDE3. It counts as biochemical, guinea pig. Particulars: mean ± S.E.M. (n); read-out: IC50 on phosphodiesterase isozyme 3. The method, then:
(§1) Under a protocol approved by the Animal Care and Use Committee of Taipei Medical University, five male guinea pigs (Hartley), weighing 500-600 g, were sacrificed. The lungs (15 g) or hearts (4 g) taken therefrom were chopped into small pieces and homogenized with a glass/teflon homogenizer (Glas-Col, Terre Haute, Ind., USA) in 10 volumes of cold medium (pH 6.5) containing 20 mM Bis-Tris, 2 mM benzamidine, 2 mM EDTA, 50 mM sodium chloride, 0.1 mM phenylmethanesulfonyl fluoride (PMSF), and 1 mM dithiothreitol. At 4° C., the homogenate was centrifuged at 170 g for 15 min, and the supernatant thereof was then re-centrifuged at 40,000 g for 30 min. […] The column was washed with two bed volumes of homogenate buffer to remove unbound material, where the resin beads therein will bind with proteins, such as PDE proteins. Proteins bound to the Q-sepharose beads were eluted with various concentrations (0.23, 0.34, 0.44, 0.69, and 1.00 M) of NaCl dissolved in homogenate buffer (for each concentration, 40-50 mL elution buffer were applied) at a flow rate of 30 ml/h. Fractions (3 ml each) were collected, and ethylene glycol (EG) was added thereto until a final concentration of 30% (v/v). And then the samples were frozen at −70° C.
(§2) The activities of PDE1-5 in the homogenate were measured with a two-step procedure according to the method of Thompson and Appleman, using cAMP with [^3H]-cAMP or cGMP with [^3 H]-cGMP as substrates. The PDE enzyme prepared (25 μl) with 10 μl inhibitor or the solvents therefor was incubated for 30 min at 37° C. in a total assay buffer, where the final volume of the assay is amounted to 100 μl. In accordance with the features of the PDE isozymes, the assay buffer contains 50 mM Tris/HCl (pH 7.4), 3 mM MgCl2, 1 mM dithiothreitol, and 0.05% BSA, and optionally contains 1 uM cAMP with 0.2 μCi [^3H]-cAMP as a substrate alone or in the presence of 0.1 unit calmodulin with 10 μM CaCl2, or 5 μM cGMP, and 1 μM cGMP with 0.2 μCi [^3H]-cGMP as another substrate alone or in the presence of 0.1 unit calmodulin with 10 μM CaCl2.
(§3) The PDE enzyme and the inhibitors (or their solvent) therefor were mixed and incubated on ice for 30 min previously, and then mixed with the assay buffer. The assay was initiated by transferring the mixture to a water bath at 37° C. Following the other 30 min incubation, the reaction was stopped by transferring the reaction vessel to a bath of boiling water for 3 min. After cooling on ice, 20 μl of the 1 mg/ml of Crotalus atrox venom was added to the reaction mixture, and the mixture was incubated at 37° C. for 10 min. The uncatalyzed substrates, such as cAMP, [^3H]-cAMP, cGMP, or [^3H]-cGMP were removed by the addition of 500 μl of a 1-in-1 Tris-HCl (40 mM) buffer suspension of Dowex resin (1×8-200) with incubation on ice for 30 min, since the bindings of the cyclic nucleotides and the resin. Each tube was then centrifuged for 2 min at 6000 rpm, and 100 μl of the supernatant was removed and counted by a β-counter for calculating the enzyme (PDEs) activity.
(§4) The IC50 values of flavonoids and various reference drugs were calculated using non-linear regression analysis by the software SigmaPlot 7.0 (Sigma Chemical, St. Louis Mo., USA). All values are shown as the mean±S.E.M. Differences among values, which are equal or greater to three groups, were statistically calculated by one-way analysis of variance (ANOVA), and then determined by the least significant difference (LSD). The difference between two values, however, was determined by use of Student's unpaired t-test. Differences were considered statistically significant if the P-value was less than 0.05.

Experiment [1] addresses T1, high affinity rolipram binding sites (HARBS, PDE4H).
T1 construct: IC50 for displacement of [3H]-rolipram from HARBS; other: 300 μM, guinea pig, preliminary experimental data; other: guinea pig whole brain particulates; over 300 μM not available due
In words: Binding to particulate HARBS of whole brain, displacement of [3H]-rolipram (Assay II). Details: species or system guinea pig. Particulars: 2 nM [3H]-rolipram, guinea pig whole brain particulates, FIG. 2; read-out: IC50 for displacement of [3H]-rolipram from HARBS. The method, then:
The binding experiments are carried on basis of the methods of Schneider et al. and Zhao et al. with a small modification. Under a protocol approved by the Animal Care and Use Committee of Taipei Medical University, five male guinea pigs (Hartley), weighing 500-600 g, were anesthetized. The whole brains taken therefrom were homogenized with in 10 volumes of cold medium (pH 6.5) containing 20 mM Bis-Tris, 2 mM benzamidine, 2 mM EDTA, 50 mM sodium chloride, 0.1 mM phenylmethanesulfonyl fluoride (PMSF), and 1 mM dithiothreitol. At 4° C., the homogenate was centrifuged at 170 g for 15 min for removing blood vessels and connective tissues, and the supernatant thereof was then re-centrifuged at 40,000 g for 30 min for separating the particulates from the cytosol of cells.
After incubation, the reaction was stopped by transferring the reaction vessel to a bath of crashed ice. Then the reaction mixture was filtered through a punched glass fiber filter (Whatman GF/B) placed in a mini funnel, which was adopted to a 1.5 ml of Eppendorff's tube for collecting the filtrate in the mini centrifuge at 1000 rpm for 10 seconds. By the same way (centrifugation), it is further washed with 0.3 ml reaction buffer each for three times. The Whatman GF/B filter was mixed with 2 ml of cocktail and counted by the β-scintillation counter (Backman, Fullerton, Calif., USA) for counting the radioactivity thereof.

Another experiment deals with PDE4H (HARBS). Particulars: references [24-26]; cited from earlier work.
A further experiment concerns T2, PDE4.
T2 construct: IC50 on phosphodiesterase isozyme 4; other: mean ± S.E.M. (n)
Description: Inhibition of cyclic nucleotide PDE activity (Assay I), PDE4, incl. Lineweaver-Burk analysis. It counts as biochemical, guinea pig. The note with it: mean ± S.E.M. (n); read-out: IC50 on phosphodiesterase isozyme 4. The method, then:
as §1, §2, §3
The dissociation constant of inhibitor binding (Ki) value was determined from the equation of apparent Km as a function of the inhibitor concentration (insert in A and B, respectively). The slope of the equation is equal to the value of […] (where KM is Michaelis constant). The amounts of the total proteins are calculated based on the analytical method reported by Bradford. In FIGS. 1A and 1B, all enzyme activities are shown as nmole of substrate per mg of proteins per minute (nmole/mg/min) hydrolyzed.
The IC50 values of flavonoids and various reference drugs were calculated using non-linear regression analysis by the software SigmaPlot 7.0 (Sigma Chemical, St. Louis Mo., USA).

A further experiment has as its system PDE1. In words: Inhibition of cyclic nucleotide PDE activity (Assay I), PDE1. It counts as biochemical, guinea pig. Particulars: mean ± S.E.M. (n); read-out: IC50 on phosphodiesterase isozyme 1. As to the method:
Under a protocol approved by the Animal Care and Use Committee of Taipei Medical University, five male guinea pigs (Hartley), weighing 500-600 g, were sacrificed. The lungs (15 g) or hearts (4 g) taken therefrom were chopped into small pieces and homogenized with a glass/teflon homogenizer (Glas-Col, Terre Haute, Ind., USA) in 10 volumes of cold medium (pH 6.5) containing 20 mM Bis-Tris, 2 mM benzamidine, 2 mM EDTA, 50 mM sodium chloride, 0.1 mM phenylmethanesulfonyl fluoride (PMSF), and 1 mM dithiothreitol. At 4° C., the homogenate was centrifuged at 170 g for 15 min, and the supernatant thereof was then re-centrifuged at 40,000 g for 30 min. The final supernatant fraction was filtered through the 0.22 μm filter and applied to a Q-sepharose fast flow column (2.2×28 cm), which is pre-washed and pre-equilibrated in homogenization buffer. The column was washed with two bed volumes of homogenate buffer to remove unbound material, where the resin beads therein will bind with proteins, such as PDE proteins. Proteins bound to the Q-sepharose beads were eluted with various concentrations (0.23, 0.34, 0.44, 0.69, and 1.00 M) of NaCl dissolved in homogenate buffer (for each concentration, 40-50 mL elution buffer were applied) at a flow rate of 30 ml/h. Fractions (3 ml each) were collected, and ethylene glycol (EG) was added thereto until a final concentration of 30% (v/v). And then the samples were frozen at −70° C. Under these conditions, the enzyme activity was stable for at least 3 months.
In order to eliminate possible contamination of PDE5 by PDE1, the above-collected fractions with enzyme activity was further purified on a calmodulin-agarose column. The column (1.6 cm×4 cm) was pre-equilibrated by a buffer A, which contains 20 mM Bis-tris, 1 mM dithiothreitol, 2 mM benzamidine, 50 mM NaCl, 3 mMMgCl2, 0.1 mM CaCl2, and 0.1 mM PMSF, pH 6.5. The sample (the mixture of PDE5 and PDE1), being purified by the above-mentioned column, with the CaCl2 concentration thereof adjusted to at least 2 mM previously, was loaded and allowed to be absorbed on the gel for 30 min. Then, the PDE isozymes were eluted by stepwise elution using 20 ml of buffer A with 1 M NaCl followed by 20 ml of buffer A with 1 M NaCl and with 1 mM EGTA. PDE5 was collected first followed by PDE1.
as §2, with “CaCl2. In assay of enzyme inhibition, the assay mixture contained with the inhibitors at various concentrations of flavonoids in the Table 1 or the selective PDE1-5 inhibitors as reference drugs. For example, the selective PDE1-5 inhibitors are vinpocetin [30], EHNA [31], milrinone, Ro 20-1724 [33], and zaprinast, respectively.” for “CaCl2.”
The PDE enzyme and the inhibitors (or their solvent) therefor were mixed and incubated on ice for 30 min previously, and then mixed with the assay buffer. The assay was initiated by transferring the mixture to a water bath at 37° C. Following the other 30 min incubation, the reaction was stopped by transferring the reaction vessel to a bath of boiling water for 3 min. After cooling on ice, 20 μl of the 1 mg/ml of Crotalus atrox venom was added to the reaction mixture, and the mixture was incubated at 37° C. for 10 min. […]

The target in another experiment is T3, PDE2 (Cavia porcellus, UniProt A0A286XUV5).
T3 sequence (A0A286XUV5 22-936): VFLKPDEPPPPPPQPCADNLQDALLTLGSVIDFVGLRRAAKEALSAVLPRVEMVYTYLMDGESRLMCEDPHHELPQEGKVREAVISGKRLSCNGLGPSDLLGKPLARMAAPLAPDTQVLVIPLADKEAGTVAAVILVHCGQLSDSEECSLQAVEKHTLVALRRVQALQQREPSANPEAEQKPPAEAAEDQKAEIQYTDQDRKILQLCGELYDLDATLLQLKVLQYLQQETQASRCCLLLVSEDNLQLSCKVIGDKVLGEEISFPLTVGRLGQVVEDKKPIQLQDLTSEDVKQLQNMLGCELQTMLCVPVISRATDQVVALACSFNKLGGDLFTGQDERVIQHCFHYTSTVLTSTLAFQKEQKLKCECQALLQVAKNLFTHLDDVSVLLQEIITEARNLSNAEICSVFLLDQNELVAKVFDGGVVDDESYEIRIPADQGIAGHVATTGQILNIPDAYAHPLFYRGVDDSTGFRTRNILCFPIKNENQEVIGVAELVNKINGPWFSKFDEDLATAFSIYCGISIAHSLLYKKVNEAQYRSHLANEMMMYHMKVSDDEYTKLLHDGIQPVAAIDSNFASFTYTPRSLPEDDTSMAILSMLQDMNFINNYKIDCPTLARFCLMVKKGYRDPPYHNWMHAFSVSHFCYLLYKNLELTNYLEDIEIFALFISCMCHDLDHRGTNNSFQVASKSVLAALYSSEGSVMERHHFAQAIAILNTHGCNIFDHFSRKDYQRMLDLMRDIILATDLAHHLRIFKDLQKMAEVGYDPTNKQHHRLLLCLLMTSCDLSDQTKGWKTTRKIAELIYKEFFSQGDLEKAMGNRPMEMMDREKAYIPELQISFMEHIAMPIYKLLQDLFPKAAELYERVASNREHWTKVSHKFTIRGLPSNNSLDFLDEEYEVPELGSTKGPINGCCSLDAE
Description: Inhibition of cyclic nucleotide PDE activity (Assay I), PDE2. Particulars: mean ± S.E.M. (n); read-out: IC50 on phosphodiesterase isozyme 2. It counts as biochemical, guinea pig. As to the method:
as §1, §2, §3, §4

Consider `Cc1[nH]c(=O)c(C#N)cc1-c1ccncc1` [milrinone, reference compound], for which the IC50 in the experiment on PDE3 turned out to be 2.4 ± 0.5 µM. Turning to `COc1ccc(C2CC(=O)c3c(OC(C)=O)cc(OC(C)=O)cc3O2)cc1OC(C)=O` (stereo not shown) [HTA, hesperetin triacetate], in experiment [1], the IC50 was > 300 µM. `COc1ccc([C@]2(C#N)CC[C@@H](C(=O)O)CC2)cc1OC1CCCC1` [cilomilast]: in the experiment on PDE4H (HARBS), the PDE4H/PDE4L ratio result is recorded as “about 1”. On to `CCCCOc1cc(CC2CNC(=O)N2)ccc1OC` (stereo not shown) [Ro 20-1724, reference compound], for which the values for the IC50 (in the experiment on PDE4; in experiment [1]) were 11.4 ± 1.6 µM and 0.0673 µM, respectively. In the case of `COc1c(-c2ccc(OC(C)=O)c(OC(C)=O)c2)oc2cc(OC(C)=O)cc(OC(C)=O)c2c1=O` [QMPA, Quercetin 3-O-methyl peracetate], the IC50 in experiment [1] was determined as 8.7 µM. Regarding `CCOC(=O)C1=C[C@]2(CC)CCCN3CCc4c(n1c1ccccc41)[C@@H]32` [vinpocetine, reference compound], the IC50 in the experiment with PDE1 is 123 ± 44.9 µM. As for `COc1ccc(-c2cc(=O)c3c(O)cc(O)cc3o2)cc1O` [Diosmetin], the IC50 in the experiment with PDE1 is 14.4 ± 6.2 µM; with PDE3 it was > 100 µM.

With `CCCCCC[C@@H]([C@@H](C)O)n1cnc2c(N)ncnc21` (racemic) [EHNA, erythro-9-(2-hydroxy-3-nonyl)adenine, reference compound], the IC50 at PDE2 came out at 4.4 ± 1 µM.
